How the values were obtained:
human LXRβ = molecular target: T1, human LXRβ (Homo sapiens, UniProt P55055); experiment: Ligand-binding test procedure for human LXRβ (3H T0901317 tracer, flash plates); conditions: biotinylated hLXRβ from E. coli extract; tracer 3H T0901317
T1 construct: biotin (biotinylated); made in house; host or cells: E. coli (crude extract)
T1 sequence (P55055 1-460): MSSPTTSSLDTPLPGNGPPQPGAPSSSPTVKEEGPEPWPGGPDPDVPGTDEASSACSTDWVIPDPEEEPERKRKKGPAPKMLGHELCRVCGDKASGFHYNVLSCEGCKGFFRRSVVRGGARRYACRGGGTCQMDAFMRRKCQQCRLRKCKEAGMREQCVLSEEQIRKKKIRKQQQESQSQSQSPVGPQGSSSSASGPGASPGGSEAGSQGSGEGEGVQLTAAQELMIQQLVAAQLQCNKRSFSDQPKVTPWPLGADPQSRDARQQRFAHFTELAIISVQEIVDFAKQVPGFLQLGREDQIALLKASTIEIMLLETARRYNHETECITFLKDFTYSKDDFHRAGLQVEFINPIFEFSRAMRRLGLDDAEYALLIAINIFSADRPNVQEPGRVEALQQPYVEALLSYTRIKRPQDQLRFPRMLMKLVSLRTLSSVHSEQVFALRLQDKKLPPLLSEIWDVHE
Procedure: I. Ligand-Binding Test Procedure for Human LXRβ.
Receptor source: E. coli extract from cells expressing biotinylated hLXRβ. Extract was made in a similar buffer as above, but with 50 mM TRIS.
(§1) Washed streptavidin and coated flash plates with wash buffer. Diluted receptor extract to give Bmax ˜4000 cpm and add to the wells. Wrapped the plates in aluminum foil and stored them at +4° C. over night.
(§2) Made a dilution series in DMSO of the test ligands. Made a 5 nM solution of the radioactive tracer in buffer. Mixed 250 μl diluted tracer with 5 μl of the test ligand from each concentration of the dilution series. Washed the receptor-coated flash plates. Added 200 μl per well of the ligand/radiolabel mixture to the receptor-coated flash plates. Wrapped the plates in aluminum foil and incubate at +4° C. over night.
(§3) Aspirated wells, and wash the flashed plates. Sealed the plate. Measured the remaining radioactivity in the plate.

human LXRα = molecular target: T2, human LXRα (Homo sapiens, UniProt Q13133); experiment: Ligand-binding test procedure for human LXRα (3H T0901317 tracer, flash plates); conditions: biotinylated hLXRα from E. coli extract; tracer 3H T0901317
T2 construct: biotin (biotinylated); made in house; host or cells: E. coli (crude extract)
T2 sequence (Q13133 1-447): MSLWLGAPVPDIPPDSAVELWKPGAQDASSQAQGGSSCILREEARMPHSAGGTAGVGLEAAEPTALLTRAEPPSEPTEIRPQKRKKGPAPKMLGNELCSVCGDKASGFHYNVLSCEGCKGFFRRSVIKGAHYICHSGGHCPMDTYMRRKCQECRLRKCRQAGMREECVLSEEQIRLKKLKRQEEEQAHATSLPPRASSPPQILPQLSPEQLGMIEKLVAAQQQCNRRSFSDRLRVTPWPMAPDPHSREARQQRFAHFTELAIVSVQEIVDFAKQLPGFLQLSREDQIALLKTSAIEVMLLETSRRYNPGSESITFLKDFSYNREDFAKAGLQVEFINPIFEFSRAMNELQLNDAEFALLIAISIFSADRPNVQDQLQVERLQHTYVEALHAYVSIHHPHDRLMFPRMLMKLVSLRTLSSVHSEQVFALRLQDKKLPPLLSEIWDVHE
Procedure: II. Ligand-Binding Test Procedure for Human LXRα.
Receptor source: E. coli extract from cells expressing biotinylated hLXRα. Extract was made in a similar buffer as above, but with 50 mM TRIS.
as §1, §2, §3

| Structure (SMILES) | IC50 (human LXRβ) | IC50 (human LXRα) |
| --- | --- | --- |
| CCc1nc2c(C(F)(F)F)cccn2c1-c1cccc(Oc2cccc(S(=O)(=O)CCC(C)(C)O)c2)c1 [Example 22, 4-(3-(3-(2-ethyl-8-(trifluoromethyl)imidazo[1,2-a]pyridin-3-yl)phenoxy)phenylsulfonyl)-2-methylbutan-2-ol] | 740 nM | 7130 nM |
| CCS(=O)(=O)c1cccc(Oc2cccc(-c3c(Cc4ccccc4)nc4c(C(F)(F)F)cccn34)c2)c1 [Example 29, 2-benzyl-3-(3-(3-(ethylsulfonyl)phenoxy)phenyl)-8-(trifluoromethyl)imidazo[1,2-a]pyridine] | 1.3 nM | 10 nM |
| CC(C)S(=O)(=O)c1cccc(Oc2cccc(-c3c(Cc4ccccc4)nc4c(C(F)(F)F)cccn34)c2)c1 [Example 30, 2-benzyl-3-(3-(3-(isopropylsulfonyl)phenoxy)phenyl)-8-(trifluoromethyl)imidazo[1,2-a]pyridine] | 1.7 nM | 15.8 nM |
| CC(C)c1nc2c(Cl)cccn2c1-c1cccc(Oc2ccc(S(N)(=O)=O)cc2)c1 [Example 39, 4-(3-(8-chloro-2-isopropylimidazo[1,2-a]pyridin-3-yl)phenoxy)benzenesulfonamide] | 3650 nM | 10200 nM |
| CCc1nc2c(Cl)cccn2c1-c1cccc(Oc2cccc(S(=O)(=O)N(Cc3ccc(OC)cc3)Cc3ccc(OC)cc3)c2)c1 [Example 42, 3-[3-(8-chloro-2-ethylimidazo[1,2-a]pyridin-3-yl)phenoxy]-N,N-bis(4-methoxybenzyl)benzenesulfonamide] | 409 nM | 920 nM |
| CCc1nc2c(Cl)cccn2c1-c1cccc(Oc2cccc(S(=O)(=O)N(C)Cc3ccc(OC)cc3)c2)c1 [Example 43, 3-[3-(8-chloro-2-ethylimidazo[1,2-a]pyridin-3-yl)phenoxy]-N-(4-methoxybenzyl)-N-methylbenzenesulfonamide] | 14.7 nM | 39.9 nM |
| CCc1nc2c(C#N)cccn2c1-c1cccc(Oc2cccc(S(=O)(=O)N(Cc3ccc(OC)cc3)Cc3ccc(OC)cc3)c2)c1 [Example 45, 3-[3-(8-cyano-2-ethylimidazo[1,2-a]pyridin-3-yl)phenoxy]-N,N-bis(4-methoxybenzyl)benzenesulfonamide] | > 1000 nM | > 1000 nM |
| CCc1nc2c(Cl)cccn2c1-c1cccc(Oc2cccc(S(N)(=O)=O)c2)c1 [Example 47, 3-[3-(8-chloro-2-ethylimidazo[1,2-a]pyridin-3-yl)phenoxy]benzenesulfonamide] | 151 nM | 2140 nM |
| CCc1nc2c(C#N)cccn2c1-c1cccc(Oc2cccc(S(N)(=O)=O)c2)c1 [Example 50, 3-[3-(8-cyano-2-ethylimidazo[1,2-a]pyridin-3-yl)phenoxy]benzenesulfonamide] | 940 nM | 14700 nM |
| CC(C)c1nc2c(Cl)cccn2c1-c1cccc(OCc2cccc(S(C)(=O)=O)c2)c1 [Example 53, 8-chloro-2-isopropyl-3-(3-{[3-(methylsulfonyl)benzyl]oxy}phenyl)imidazo[1,2-a]pyridine] | 137 nM | 1860 nM |
| CCc1nc2c(C(F)(F)F)cccn2c1-c1ccc(-c2cccc(S(C)(=O)=O)c2)nc1 [Example 87, 2-ethyl-3-{6-[3-(methylsulfonyl)phenyl]pyridin-3-yl}-8-(trifluoromethyl)imidazo[1,2-a]pyridine] | 8330 nM |  |
| CCc1nc2c(C#N)cccn2c1-c1ccc(Oc2cccc(S(=O)(=O)CC)c2)cc1 [Example 107, 2-ethyl-3-{4-[3-(ethylsulfonyl)phenoxy]phenyl}imidazo[1,2-a]pyridine-8-carbonitrile] | > 1000 nM |  |
| CCc1nc2c(C#N)cccn2c1-c1cccc(COc2cccc(S(C)(=O)=O)c2)c1 [Example 110, 2-ethyl-3-(3-{[3-(methylsulfonyl)phenoxy]methyl}phenyl)imidazo[1,2-a]pyridine-8-carbonitrile] | > 1000 nM |  |
| CCc1nc2c(Cl)cccn2c1-c1ccc(COc2cccc(S(C)(=O)=O)c2)cc1 [Example 112, 8-chloro-2-ethyl-3-(4-{[3-(methylsulfonyl)phenoxy]methyl}phenyl)imidazo[1,2-a]pyridine] | > 1000 nM |  |
| CCS(=O)(=O)c1cccc(Oc2ccc(-c3c(C(C)C)nc4c(C#N)cccn34)cc2)c1 [Example 124, 3-{4-[3-(ethylsulfonyl)phenoxy]phenyl}-2-(1-methylethyl)imidazo[1,2-a]pyridine-8-carbonitrile] | > 1000 nM |  |

Results, then the compound that gave them:

| IC50 (human LXRβ) | IC50 (human LXRα) | Structure (SMILES) |
| --- | --- | --- |
| 143 nM | 1480 nM | CCCS(=O)(=O)c1cccc(Oc2cccc(-c3c(C)nc4c(C(F)(F)F)cccn34)c2)c1 [Example 11, 2-methyl-3-(3-(3-(propylsulfonyl)phenoxy)phenyl)-8-(trifluoromethyl)imidazo[1,2-a]pyridine] |
| 525 nM | 6250 nM | Cc1nc2c(C(F)(F)F)cccn2c1-c1cccc(Oc2cccc(S(=O)(=O)CCC(C)(C)O)c2)c1 [Example 14, 2-methyl-4-[(3-{3-[2-methyl-8-(trifluoromethyl)imidazo[1,2-a]pyridin-3-yl]phenoxy}phenyl)sulfonyl]butan-2-ol] |
| 119 nM | 1880 nM | Cc1nc2c(C(F)(F)F)cccn2c1-c1cccc(Oc2cc(F)cc(S(C)(=O)=O)c2)c1 [Example 15, 3-{3-[3-fluoro-5-(methylsulfonyl)phenoxy]phenyl}-2-methyl-8-(trifluoromethyl)imidazo[1,2-a]pyridine] |
| 508 nM | 4770 nM | CCC(C)S(=O)(=O)c1ccc(Oc2cccc(-c3c(C)nc4c(C(F)(F)F)cccn34)c2)cc1 (stereo not shown) [Example 16, 3-{3-[4-(sec-butylsulfonyl)phenoxy]phenyl}-2-methyl-8-(trifluoromethyl)imidazo[1,2-a]pyridine] |
| 5 nM | 221 nM | CCS(=O)(=O)c1cccc(Oc2cccc(-c3c(C(C)C)nc4c(C(F)(F)F)cccn34)c2)c1 [Example 26, 2-isopropyl-3-(3-(3-(ethylsulfonyl)phenoxy)phenyl)-8-(trifluoromethyl)imidazo[1,2-a]pyridine] |
| 8 nM | 144 nM | CC(C)c1nc2c(C(F)(F)F)cccn2c1-c1cccc(Oc2cccc(S(=O)(=O)C(C)C)c2)c1 [Example 27, 2-isopropyl-3-(3-(3-(isopropylsulfonyl)phenoxy)phenyl)-8-(trifluoromethyl)imidazo[1,2-a]pyridine] |
| > 1000 nM |  | CCc1nc2c(C#N)cccn2c1-c1ccc(Oc2cccc(S(C)(=O)=O)c2)cc1 [Example 104, 2-ethyl-3-{4-[3-(methylsulfonyl)phenoxy]phenyl}imidazo[1,2-a]pyridine-8-carbonitrile] |
| > 1000 nM |  | CC(C)c1nc2c(C#N)cccn2c1-c1ccc(Oc2cccc(S(C)(=O)=O)c2)cc1 [Example 123, 2-(1-methylethyl)-3-{4-[3-(methylsulfonyl)phenoxy]phenyl}imidazo[1,2-a]pyridine-8-carbonitrile] |
| 600 nM |  | CS(=O)(=O)c1cccc(Oc2ccc(-c3c(C(F)(F)F)nc4c(C(F)(F)F)cccn34)cc2)c1 [Example 125, 3-{4-[3-(methylsulfonyl)phenoxy]phenyl}-2,8-bis(trifluoromethyl)imidazo[1,2-a]pyridine] |
| > 1000 nM |  | CN1CCN(Cc2nc3c(C(F)(F)F)cccn3c2-c2cccc(Oc3cccc(S(C)(=O)=O)c3)c2)CC1 [Example 132, 2-[(4-methylpiperazin-1-yl)methyl]-3-{3-[3-(methylsulfonyl)phenoxy]phenyl}-8-(trifluoromethyl)imidazo[1,2-a]pyridine] |
| > 1000 nM |  | CNCc1nc2c(C(F)(F)F)cccn2c1-c1cccc(Oc2cccc(S(C)(=O)=O)c2)c1 [Example 134, N-methyl-1-[3-{3-[3-(methylsulfonyl)phenoxy]phenyl}-8-(trifluoromethyl)imidazo[1,2-a]pyridin-2-yl]methanamine] |
| > 1000 nM |  | CC(C)NCc1nc2c(C(F)(F)F)cccn2c1-c1cccc(Oc2cccc(S(C)(=O)=O)c2)c1 [Example 136, N-{[3-{3-[3-(methylsulfonyl)phenoxy]phenyl}-8-(trifluoromethyl)imidazo[1,2-a]pyridin-2-yl]methyl}propan-2-amine] |
